Legend:
[1] = molecular target: T1, recombinant human CI-M6PR protein (Homo sapiens, UniProt P11717); assay: Human CI-M6PR binding assay (ELISA); conditions: conjugates of ligand linkers
T1 construct: purchased R&D 6418-GR-050
Experimental: Nunc black solid bottom MaxiSorp plates were allowed to incubate overnight at 4° C. coated with […] of recombinant human CI-M6PR protein (R&D, 6418-GR-050) in 50 μL PBS. The next day, coating was decanted and plates were washed 3× with PBS. Wells were blocked with 350 μL of 3% BSA-PBS for 1 hour at room temperature. […] 50 μL of diluted conjugates were added to the plate and allowed to incubate at room temperature for 2 hours. After incubation, solutions in plate were decanted and washed with 350 μL of 0.05% PBS-Tween20 three times, drying the plate each wash on a clean paper towel. 50 μL of peroxidase AffiniPure Mouse Anti-Human IgG (Jackson Immuno, 209-035-088) diluted in 3% BSA-PBS to […] was added to the plate and allowed to incubate for 1 hour at room temperature in the dark. After incubation, solutions in plate were decanted and washed with 350 μL of 0.05% PBS-Tween20 3 times, drying the plate each wash on a clean paper towel. […] 50 μL of QuantaBlu solution was added to wells and allowed to incubate for 5-10 minutes at room temperature. After incubation, plates were read on a Perkin Elmer EnVision using photometric 340 and Umbelliferone 460 filter sets for excitation and emission, respectively. Data analysis and non-linear curve-fitting was performed using GraphPad Prism.

Jurkat cells = assay: Conjugate-mediated uptake of IgG2a-Alexa488 into Jurkat cells (flow cytometry); assay type: cell-based; conditions: anti-IgG2a conjugates, 1 hour and 24 hours, FIGS. 21-22
Experimental: The anti-IgG2a conjugates were bound to IgG2a-Alexa488, as follows: equal molar ratios of anti-IgG2a and IgG2a-Alexa488 were added in tissue culture media for 30 minutes at room temperature. The resulting anti-IgG2a:IgG2a antibody-Alexa488 compositions were added to Jurkat cells (100 k cells/50 ul per well, n=2), and Alexa488 fluorescence levels were measured (via Alexa488 measurement) at 1 hour and 24 hours by flow cytometry. Because Alexa488 accumulates in cells, this presents a way to measure total intracellular uptake by cells over time.

[2] = Serum pharmacokinetic analysis of rIgG1 (anti-IgG2a) antibody conjugates; assay type: in vivo; conditions: C57B6 mice, intravenous, 10 μg/mouse, 0.5-24 hours, FIGS. 20A-20C
Experimental: A pharmacokinetic analysis of the rIgG1 (anti-IgG2a) antibody conjugates described in the previous example was performed in mice. In particular, C57B6 mice were intravenously administered each rIgG1 antibody conjugate at 10 μg/mouse (5 mice per group). Blood was collected at 0.5, 1, 2, 6, and 24 hours and serum rIgG1 was analyzed using an ELISA kit (Abcam) according to the manufacturer's instructions. Samples were run across 3 different plates with unconjugated rIgG1 controls (UNLB-anti-IgG2a rIgG1) included on all 3 plates.

T1 sequence (P11717 41-2491): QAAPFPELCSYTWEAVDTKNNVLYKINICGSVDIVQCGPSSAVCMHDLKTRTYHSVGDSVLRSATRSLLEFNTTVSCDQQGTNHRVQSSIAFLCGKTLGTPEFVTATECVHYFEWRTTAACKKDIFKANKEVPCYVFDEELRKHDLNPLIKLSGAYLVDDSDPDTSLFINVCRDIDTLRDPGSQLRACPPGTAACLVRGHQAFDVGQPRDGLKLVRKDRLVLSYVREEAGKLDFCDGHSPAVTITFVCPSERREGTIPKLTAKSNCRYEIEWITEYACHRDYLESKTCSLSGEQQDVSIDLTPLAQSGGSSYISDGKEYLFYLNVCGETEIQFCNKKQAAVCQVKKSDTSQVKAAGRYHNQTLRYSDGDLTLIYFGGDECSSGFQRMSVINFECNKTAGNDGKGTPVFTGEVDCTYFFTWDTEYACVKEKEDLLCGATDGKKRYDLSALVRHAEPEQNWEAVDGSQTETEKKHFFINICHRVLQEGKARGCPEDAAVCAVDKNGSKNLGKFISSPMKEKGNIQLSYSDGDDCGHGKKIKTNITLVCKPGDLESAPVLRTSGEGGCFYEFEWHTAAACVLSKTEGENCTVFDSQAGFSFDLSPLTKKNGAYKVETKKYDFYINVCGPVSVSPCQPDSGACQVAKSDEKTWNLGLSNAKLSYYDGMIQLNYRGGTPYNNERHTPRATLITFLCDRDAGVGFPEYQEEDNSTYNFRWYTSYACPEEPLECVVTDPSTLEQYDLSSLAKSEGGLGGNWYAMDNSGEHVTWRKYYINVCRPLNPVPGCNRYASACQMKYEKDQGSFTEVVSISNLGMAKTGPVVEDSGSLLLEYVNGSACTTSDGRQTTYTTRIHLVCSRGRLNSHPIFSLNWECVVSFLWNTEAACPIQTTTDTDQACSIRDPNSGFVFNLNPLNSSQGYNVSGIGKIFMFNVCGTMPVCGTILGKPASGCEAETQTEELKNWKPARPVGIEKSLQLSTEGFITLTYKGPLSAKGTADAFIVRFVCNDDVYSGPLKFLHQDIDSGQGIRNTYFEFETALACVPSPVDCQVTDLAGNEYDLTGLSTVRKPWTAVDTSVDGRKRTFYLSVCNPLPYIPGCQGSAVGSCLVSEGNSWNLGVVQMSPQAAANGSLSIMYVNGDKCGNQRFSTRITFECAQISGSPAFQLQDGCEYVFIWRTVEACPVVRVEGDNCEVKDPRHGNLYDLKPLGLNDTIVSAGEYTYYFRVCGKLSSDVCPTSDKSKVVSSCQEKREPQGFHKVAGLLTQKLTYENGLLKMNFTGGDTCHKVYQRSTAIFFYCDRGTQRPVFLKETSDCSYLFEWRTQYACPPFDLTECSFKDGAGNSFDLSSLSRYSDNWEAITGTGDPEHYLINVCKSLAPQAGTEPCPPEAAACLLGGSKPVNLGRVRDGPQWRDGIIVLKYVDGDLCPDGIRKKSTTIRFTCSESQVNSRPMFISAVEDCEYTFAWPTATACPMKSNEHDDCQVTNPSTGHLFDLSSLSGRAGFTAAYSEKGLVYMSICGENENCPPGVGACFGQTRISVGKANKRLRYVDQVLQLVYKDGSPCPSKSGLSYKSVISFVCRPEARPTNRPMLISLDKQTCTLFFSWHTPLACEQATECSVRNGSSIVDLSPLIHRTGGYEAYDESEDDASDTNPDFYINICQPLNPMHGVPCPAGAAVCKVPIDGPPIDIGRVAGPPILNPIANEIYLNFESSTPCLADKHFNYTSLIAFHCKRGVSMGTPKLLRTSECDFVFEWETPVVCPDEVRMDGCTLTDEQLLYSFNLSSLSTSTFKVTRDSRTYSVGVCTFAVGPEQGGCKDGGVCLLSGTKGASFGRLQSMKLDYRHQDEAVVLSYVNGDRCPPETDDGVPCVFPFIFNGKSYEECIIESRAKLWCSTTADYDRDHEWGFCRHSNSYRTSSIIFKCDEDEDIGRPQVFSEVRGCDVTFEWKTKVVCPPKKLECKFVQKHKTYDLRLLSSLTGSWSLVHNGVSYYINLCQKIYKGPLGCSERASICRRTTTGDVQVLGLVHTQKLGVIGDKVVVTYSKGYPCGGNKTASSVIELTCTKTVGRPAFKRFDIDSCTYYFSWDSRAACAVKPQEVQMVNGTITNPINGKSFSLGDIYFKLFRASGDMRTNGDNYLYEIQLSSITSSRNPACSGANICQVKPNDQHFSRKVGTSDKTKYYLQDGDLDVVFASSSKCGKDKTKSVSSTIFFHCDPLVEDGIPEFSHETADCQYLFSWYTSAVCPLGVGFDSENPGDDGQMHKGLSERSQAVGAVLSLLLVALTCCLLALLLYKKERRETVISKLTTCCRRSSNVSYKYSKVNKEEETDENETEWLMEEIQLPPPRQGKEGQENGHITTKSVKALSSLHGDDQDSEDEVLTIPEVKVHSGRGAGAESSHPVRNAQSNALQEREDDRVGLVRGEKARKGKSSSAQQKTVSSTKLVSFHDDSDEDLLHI

Compound | binding affinity to M6PR compared to Compound I-7 [1] | uptake of IgG2a-Alexa488 into Jurkat cells (Jurkat cells) | half life (serum rIgG1) compared to Compound I-7 conjugate [2]
O=C(CCOCCOCCOCCN(CCOCCOCCOCCn1cc(CCC[C@H]2O[C@H](CCP(=O)(O)O)[C@@H](O)[C@H](O)[C@@H]2O)nn1)CCOCCOCCOCCn1cc(CCO[C@H]2O[C@H](CCP(=O)(O)O)[C@@H](O)[C@H](O)[C@@H]2O)nn1)Oc1c(F)c(F)c(F)c(F)c1F [Compound I-12] | weaker binding affinity | sufficiently robust uptake | longer half life
O=C(CCOCCn1cc(CCO[C@H]2O[C@H](CCP(=O)(O)O)[C@@H](O)[C@H](O)[C@@H]2O)nn1)Oc1c(F)c(F)c(F)c(F)c1F [Compound I-11] | weaker binding affinity | sufficiently robust uptake | longer half life
